Entries after “also recorded” stand apart in the source; their conditions may differ. Residues, ends and D or L forms follow the SMILES beside them. No end group written: not given here. *: point of attachment. Cbz = O=C(OCc1ccccc1)*; CH2F = FC*
How the values were obtained:
hippocampal neurons = assay: Toxicity of transduced peptides to neurons in primary hippocampal cultures (NeuN immunostaining, quantitative image analysis); type: cell-based; conditions: for NeuN-immunoreactive (neuronal) population: 10 μM peptide
Method: (§1) Hippocampal or cortical neurons derived from 17-day old rat embryos were plated in modified minimum essential media (MEM-PAK) supplemented with 5% horse serum. Three days later, the cultures were treated with 10 μM cytosine arabinoside (AraC). Twenty-four h later the cells were treated with the peptide conjugates and incubated for an additional 24 or 48 h. Cells were incubated in the presence of 50 μM of the general caspase inhibitor BOC-Asp(Ome)-FMK (BAF) for 30 min prior to addition of peptides or with an equivalent volume of dimethylsulfoxide (DMSO) and then maintained in the presence of the same concentration of the inhibitor for the duration of the experiment. In all experiments involving Aβ, a 1 mM Aβ42 stock solution was used that had been incubated at 37° C. for 48 h and then stored at 4° C. to allow for the formation of Aβ fibrils. Aβ42 was purchased from AnaSpec (San Jose, Calif.).
Peptides were synthesized and purified at the Stanford University Protein and Nucleic Acid (PAN) Facility. All peptide stocks were solubilized in water at 1 or 10 mM concentration. […] A control peptide used was a fusion of the human immunodeficiency virus-1 TAT protein (HIV-TAT) delivery peptide sequence (Hileman et al., FEBS Lett. 415:145-154 (1997) and the first helix of the p75 receptor intracellular domain.
Hippocampal cultures were fixed in 4% paraformaldehyde in 1× phosphate-buffered saline (PBS) for 20 min at room temperature (RT). Cells were then rinsed in 1× PBS and then washed once in 1× Tris-buffered saline (TBS) followed by blocking in 10% donkey serum (Jackson ImmunoResearch Labs, West Grove, Pa.) with 0.1% Triton X-100 in 1×TBS for 1 h at RT. Cultures were incubated overnight in the presence of rabbit anti-GFAP (Sigma, St. Louis) at 1:800 dilution and mouse anti-NeuN (Chemicon, Temecula, Calif.) at 1:100 at 4° C. Negative controls were incubated in 2 mg/ml rabbit and mouse preinimune IgGs (Sigma, St. Louis). All primary antibodies were diluted in 1×TBS containing 10% donkey serum. Cultures were washed for 90 min in 4 changes of 1×TBS and incubated in the presence of donkey anti-rabbit IgG conjugated to Cy3 and donkey anti-mouse IgG conjugated to FITC (Jackson ImmunoResearch Laboratories, Inc., West Grove, Pa.), at 1:250 and 1:400, respectively, in 1×TBS containing 1% donkey serum for 1 h at RT. Cells were washed for 90 min in 4 changes of 1×TBS and mounted in VectaShield-DAPI mounting medium (Vector Laboratories, Burlingame, Calif.). Images were acquired using Nikon Eclipse-800 microscope and Optronics MagnaFire camera and software, and analyzed using Compix Simple PCI software. The total surface area corresponding to red and green fluorescence in each confocal image was determined by image analysis using Simple PCI software (Compix, Inc., Philadelphia).
To investigate whether this was due to a greater sensitivity of neurons than glial cells to DP-APPC31-induced death, 3-day-old rat hippocampal cultures were exposed to increasing concentrations of DP-APPC31 or control DP peptide and fixed 48 h after transduction. The fixed cultures were then immunostained with antibodies specific for GFAP (red) and NeuN (green). A quantitative assessment of the total area of red and green fluorescence present in low-magnification confocal images of representative fields obtained from three independent experiments was performed using a digital image analysis system (SimplePCl, Compix, Inc, Philadelphia).
APLP1C31 induces death in primary hippocampal cultures. […] If this event occurs in vivo, APLP1 would have the potential to generate a pro-apoptotic C-terminal peptide homologous to APPC31. To deterinine whether the peptide generated by caspase cleavage of APLP1 is toxic, a fusion of APLP1C31 to the Antennapedia delivery peptide (DP-APLP1C31) was generated and assayed in protein transduction experiments. […]

glial cells = assay: Toxicity of transduced peptides to glial cells in primary hippocampal cultures (GFAP immunostaining, quantitative image analysis); type: cell-based, rat
Method: as §1
(§2) Peptides were synthesized and purified at the Stanford University Protein and Nucleic Acid (PAN) Facility. All peptide stocks were solubilized in water at 1 or 10 mM concentration. […]
Hippocampal cultures were fixed in 4% paraformaldehyde in 1× phosphate-buffered saline (PBS) for 20 min at room temperature (RT). […] Images were acquired using Nikon Eclipse-800 microscope and Optronics MagnaFire camera and software, and analyzed using Compix Simple PCI software. The total surface area corresponding to red and green fluorescence in each confocal image was determined by image analysis using Simple PCI software (Compix, Inc., Philadelphia).
To investigate whether this was due to a greater sensitivity of neurons than glial cells to DP-APPC31-induced death, 3-day-old rat hippocampal cultures were exposed to increasing concentrations of DP-APPC31 or control DP peptide and fixed 48 h after transduction. […] A quantitative assessment of the total area of red and green fluorescence present in low-magnification confocal images of representative fields obtained from three independent experiments was performed using a digital image analysis system (SimplePCl, Compix, Inc, Philadelphia). […]

[1] = system: primary hippocampal cultures; assay: LIVE/DEAD assay (calcein / EthD-1) of primary hippocampal cultures; type: cell-based, rat; conditions: for toxicity of Aβ alone: 36 hours
Method: as §1
(§3) Primary hippocampal or cortical neuronal culturesor 293 cells transduced with the different penetratin-peptide conjugates were assayed for viability at 24 and 48 h after transduction by trypan blue exclusion or by conversion of 3-[4,5-Dimethylthiazol-2-yl]-2,5-diphenyltetrazolium bromide; Thiazolyl blue (MTT, Sigma, St. Louis) to formazan by dehydrogenase enzymes (MTT, Sigma, St. Louis) and by the LIVE/DEAD assay (Molecular Probes, Eugene, Oreg.), which distinguishes live cells by the presence of intracellular esterase activity, which results in the conversion of the non-fluorescent cell permeant calcein-AM to the intensely green fluorescent calcein. Calcein is retained witlin live cells. Ethidium homodimer-1 (EthD-1) enters cells with damaged membranes and becomes intensely fluorescent when bonding to nucleic acids. EthD-1 is excluded by the intact plasma membrane of live cells. Media were removed and replaced by 4 μM EthD-1 and 2 μM calcein in PBS. […]
(§4) Aβ exacerbates the sensitivity of hippocampal cultures to C31 toxicity. […] Thirty-six hours later, the cultures were evaluated by the LIVE/DEAD assay. […] Cells were stained with Hoechst 33342 and scored for nuclear condensation.

[2] = system: primary hippocampal cultures; assay: Viability of primary hippocampal cultures by MTT assay; type: cell-based, rat; conditions: increasing concentrations
Method: as §1
Peptides were synthesized and purified at the Stanford University Protein and Nucleic Acid (PAN) Facility. All peptide stocks were solubilized in water at 1 or 10 mM concentration. […] A control peptide used was a fusion of the human immunodeficiency virus-1 TAT protein (HIV-TAT) delivery peptide sequence (Hileman et al., FEBS Lett. 415:145-154 (1997) and the first helix of the p75 receptor intracellular domain. […]

[3] = system: primary hippocampal cultures; assay: Hoechst 33342 staining of condensed, fragmented (apoptotic) nuclei in primary hippocampal cultures; type: cell-based, rat; conditions: for percentage of apoptotic nuclei (Hoechst 33342): cultures preincubated with 5 μM Aβ for 24 h, then exposed to C-C31 or not
Method: as §1, §3, §4

N2a neuroblastoma cells = assay: Annexin V-FITC staining of transfected N2a cells; type: cell-based, mouse
Method: Mouse N2a neuroblastoma cells were grown at 37° C. and 5% CO2 in […] Dulbecco's modified Eagle's medium and 45% OptiMEM I (Life Technologies) supplemented with 10% fetal bovine serum and 2 mM glutamine. Plasmid constructs were introduced into the N2a cells with the LipofectAMINE plus transfection reagent (Life Technologies) according to the manufacturer's instructions.
N2a cells were plated on glass cover slips treated with polylysine and were transfected as described above. At 24 h after transfection, cells were directly stained with annexin V-FITC for apoptosis in tissue culture media, according to the manufacturer's instructions (annexin V-FITC Apoptosis Detection Kit; Calbiochem, La Jolla, Calif.). After being stained with annexin V-FITC, cells were fixed for 20 min in 4% parafoimaldehyde in phosphate-buffered saline and permeabilized in 0.5% Triton X-100 in phosphate-buffered saline for 5 min. After being blocked in 5% BSA in phosphate-buffered saline, the cells were incubated for 1 h at room temperature with CT15, diluted 1:2,000. In parallel, cells were stained with propidium iodide after annexin V staining and paraformaldehyde fixation but without permeabilization to verify membrane integrity; the combination of amnexin V staining and membrane integrity indicated apoptosis without secondary necrosis. The primary antibody was detected with Texas Red®-conjugated secondary antibody against rabbit (Molecular Probes, Eugene, Oreg.). Negative controls, which included preimmune serum and cells transfected with pcDNA3 (mock transfection), were assayed in parallel using the protocol described above. The cells were analyzed by confocal nmcroscopy using a BioRad MRC-1024 system. Cells in five random fields were counted for each slide, in duplicate for each condition. The number of cells positive and negative for APP or C31 and apoptosis (annexin V-FITC) were determined, and relative risk was calculated (RR=p1/p2)=concordant staining [(+/+) times (−/−)] divided by discordant staining [(+/−) times (−/+)].
Double-labeling of APP and annexin V in N2a cells after transfection was performed. N2a cells were transfected with either APP or C31 followed by staining with annexin V-FITC to visualize apoptotic cells. Transfected cells were immunolocalized with CT15 followed by Texas Red conjugated secondary antibody to visualize APP or C31 expression. When expressed in N2a cells, C31 but not APP is associated with apoptosis. A high proportion of C31 transfected cells are positive for amnexin V-FITC (green outline of the cell; RR=6.3), whereas in APP-expressing cells, annexin V-FITC staining is sparse (RR=0.77). In control cells transfected with pcDNA3 (mock transfection; control), there is no staining with annexin V-FITC and essentially no staining of endogenous APP at this antibody dilution. Images are representations of four different fields of view of each of three separate experiments.

[4] = system: primary hippocampal cultures; assay: Viability of primary hippocampal cultures by trypan blue exclusion; type: cell-based, rat; conditions: 5 μM Aβ
Method: as §1, §2, §4

[5] = synthetic peptide delivered into primary cultures

Molecule: COC(=O)C[C@H](NC(=O)OC(C)(C)C)C(=O)CF [BAF, BOC-Asp(Ome)-FMK, reference compound]
- effect of caspase inhibitor on DP-APLP1C31 toxicity (hippocampal neurons; BAF 50 μM): delayed DP-APLP1C31 toxicity
- effect of caspase inhibitor on DP-APPC31 toxicity (hippocampal neurons; BAF 50 μM, DP-APPC31 10 μM): delayed the toxicity; also recorded: blocked the toxicity

Molecule: CC[C@H](C)[C@H](NC(=O)[C@H](CCCCN)NC(=O)[C@@H](NC(=O)[C@H](CCC(N)=O)NC(=O)[C@H](CCCNC(=N)N)NC(=O)[C@@H](N)CSSC[C@H](N)C(=O)N[C@@H](C)C(=O)N[C@@H](C)C(=O)N[C@H](C(=O)N[C@H](C(=O)N1CCC[C@H]1C(=O)N[C@@H](CCC(=O)O)C(=O)N[C@@H](CCC(=O)O)C(=O)N[C@@H](CCCNC(=N)N)C(=O)N[C@@H](Cc1c[nH]cn1)C(=O)N[C@@H](CC(C)C)C(=O)N[C@@H](CO)C(=O)N[C@@H](CCCCN)C(=O)N[C@@H](CCSC)C(=O)N[C@@H](CCC(N)=O)C(=O)N[C@@H](CCC(N)=O)C(=O)N[C@@H](CC(N)=O)C(=O)NCC(=O)N[C@@H](Cc1ccc(O)cc1)C(=O)N[C@@H](CCC(=O)O)C(=O)N[C@@H](CC(N)=O)C(=O)N1CCC[C@H]1C(=O)N[C@H](C(=O)N[C@@H](Cc1ccc(O)cc1)C(=O)N[C@@H](CCCCN)C(=O)N[C@@H](Cc1ccccc1)C(=O)N[C@@H](Cc1ccccc1)C(=O)N[C@@H](CCC(=O)O)C(=O)N[C@@H](CCC(N)=O)C(=O)N[C@@H](CCSC)C(=O)N[C@@H](CCC(N)=O)C(=O)N[C@@H](CC(N)=O)C(=O)O)[C@@H](C)O)[C@@H](C)O)C(C)C)[C@@H](C)CC)C(=O)N[C@@H](Cc1c[nH]c2ccccc12)C(=O)N[C@@H](Cc1ccccc1)C(=O)N[C@@H](CCC(N)=O)C(=O)N[C@@H](CC(N)=O)C(=O)N[C@@H](CCCNC(=N)N)C(=O)N[C@@H](CCCNC(=N)N)C(=O)N[C@@H](CCSC)C(=O)N[C@@H](CCCCN)C(=O)N[C@@H](Cc1c[nH]c2ccccc12)C(=O)N[C@@H](CCCCN)C(=O)N[C@@H](CCCCN)C(=O)O [DP-APPC31]
- glial (GFAP) population (glial cells; 10 μM peptide, 48 h after transduction): significantly reduced
- viability of hippocampal neuronal cultures ([1]; 10 μM, 24 h after transduction): marked decrease in viability
- NeuN-immunoreactive (neuronal) population (hippocampal neurons): significantly reduced; also recorded: markedly reduced
- NeuN-immunoreactive (neuronal) population (hippocampal neurons; listed as C-C31): marked decrease
- number of viable cells converting MTT into formazan [2]: reduced the number of viable cells
- percentage of apoptotic nuclei (Hoechst 33342) [3]: 72%
- percentage of condensed, fragmented nuclei, concentration dependence ([3]; increasing concentrations, 30 hours after transduction): increase in the percentage of condensed, fragmented nuclei

Molecule: CC(C)[C@H](NC(=O)OCc1ccccc1)C(=O)N[C@@H](C)C(=O)N[C@@H](CC(=O)O)C(=O)CF [zVAD.fmk, benzoxycarbonyl-Val-Ala-Asp-CH2F, reference compound] (Cbz-Val-Ala-Asp-CH2F)
- effect on annexin V staining of C31 transfected cells (N2a neuroblastoma cells; zVAD.fmk treatment): decreased annexin V staining of C31 transfected cells to control levels

Molecule: APP: wild-type human APP695 expressed from pcDNA3 by transfection
- relative risk (RR) of annexin V-FITC staining with expression (N2a neuroblastoma cells; expression by transfection): 0.77
- annexin V-positive among construct-positive cells (N2a neuroblastoma cells; expression by transfection, no tamoxifen or staurosporine, 24 h): 13±5%

Molecule: Aβ: Aβ42 purchased from AnaSpec, stock incubated to allow formation of Aβ fibrils [reference compound]
- toxicity of Aβ alone ([1]; 50 μM): decrease the number of viable cells in the culture substantially
- toxicity of Aβ alone ([1]; concentrations up to 25 μM): No measurable toxicity
- dead cells with Aβ alone [4]: did not increase the number of dead cells
- percentage of apoptotic nuclei (Hoechst 33342) [3]: ~9%

Molecule: PMLTLEEQQLRELQRHGYENPTYRFLEERP [APLP1-C31]
- LD50 for glial cells (glial cells; [5]): 35 to 40 µM
- LD50 for neurons (hippocampal neurons; [5]): around 3 micromolar
